Structures are written as SMILES. Structures can show the parent of a compound that is named as a salt.

In general, half-life refers to how long it takes for the measured level to halve. By microsomal CLint is commonly meant the capacity of the preparation to metabolise the compound, expressed as a volume cleared per time. A high value points to rapid turnover.

The series is described as follows: in vitro. The settings on record: for differences in half-life and intrinsic clearance compared to 2-Br-LSD: human liver microsomes, significant = 15% or more increase in half-life, CLint ratio >1.15 or <0.85; for CLint / T1/2: pooled liver microsomes 0.5 mg/mL protein, test compound 1 μM, NADPH 1 mM, 37° C., 0-45 min, LC-MS/MS; for half-life / microsomal CLint: pH 7.4. How it is done: Test compound (1 μM) was incubated with pooled liver microsomes.
Pooled liver microsomes were purchased from a reputable commercial supplier. Microsomes were stored at −80° C. prior to use.
A minus cofactor control incubation was included for each compound tested where 0.1 M phosphate buffer pH 7.4 was added instead of NADPH (minus NADPH). Two control compounds were included with each species. All incubations were performed singularly for each test compound.
The reactions were stopped by transferring incubate into acetonitrile at the appropriate time points, in a 1:3 ratio. The termination plates were centrifuged at 3,000 rpm for 20 min at 4° C. to precipitate the protein.
Following protein precipitation, the sample supernatants were combined in cassettes of up to 4 compounds, internal standard was added and samples analyzed using generic LCMS/MS conditions.
From a plot of ln peak area ratio (compound peak area/internal standard peak area) against time, the gradient of the line was determined. Subsequently, half-life and intrinsic clearance were calculated using the equations below: […]
Relevant control compounds were assessed, ensuring intrinsic clearance values fell within the specified limits (if available). Any failures were rejected and the assay repeated. The intrinsic clearance (CLint) of the test compound and t ½ were returned.
(In general: Liver microsomes are a subcellular fraction often used to study metabolism.)

For `[2H]c1c([2H])c2c3c(c(Br)[nH]c3c1[2H])C[C@@H]1C2=C[C@@H](C(=O)N(CC)CC)CN1C` [Compound 1, (6aR,9R)-5-Bromo-N,N-diethyl-7-methyl-4,6,6a,7,8,9-hexahydroindolo[4,3-fg]quinoline-9-carboxamide-1,2,3-d3 formate], the “differences in half-life and intrinsic clearance compared to 2-Br-LSD” value is “differences”; the CLint is 52.6 μL/min/mg protein; the T1/2 was 0.438 h.

On to `[2H]C([2H])([2H])N1C[C@H](C(=O)N(CC)CC)C=C2c3cccc4[nH]c(Br)c(c34)C[C@H]21` [Compound 2, (6aR,9R)-5-bromo-N,N-diethyl-7-(methyl-d3)-4,6,6a,7,8,9-hexahydroindolo[4,3-fg]quinoline-9-carboxamide], for which the “differences in half-life and intrinsic clearance compared to 2-Br-LSD” value is listed as “differences”; the CLint is 49.4 μL/min/mg protein; the T1/2 was found to be 0.468 h.

On to `CCN(CC)C(=O)[C@@H]1C=C2c3cccc4[nH]c(Br)c(c34)C[C@H]2N(C)C1` [Compound 2-Br-LSD, 2-Bromolysergic acid diethylamide, reference compound], for which the CLint was determined as 56.3 μL/min/mg protein and the T1/2 is 0.41 h.

Take `[2H]C([2H])([2H])C([2H])([2H])N(C(=O)[C@@H]1C=C2c3cccc4[nH]c(Br)c(c34)C[C@H]2N(C)C1)C([2H])([2H])C([2H])([2H])[2H]` [Compound 7, (6aR,9R)-5-bromo-N,N-bis(ethyl-d5)-7-methyl-4,6,6a,7,8,9-hexahydroindolo[4,3-fg]quinoline-9-carboxamide]: the CLint is recorded as 44.6 μL/min/mg protein and the T1/2 was found to be 0.518 h.

For `[2H]C([2H])([2H])N1C[C@H](C(=O)N(C([2H])([2H])C([2H])([2H])[2H])C([2H])([2H])C([2H])([2H])[2H])C=C2c3cccc4[nH]c(Br)c(c34)C[C@H]21` [Compound 9, (6aR,9R)-5-bromo-N,N-bis(ethyl-d5)-7-(methyl-d3)-4,6,6a,7,8,9-hexahydroindolo[4,3-fg]quinoline-9-carboxamide trifluoroacetate-d], the CLint is on record as 38.8 μL/min/mg protein and the T1/2 came to 0.595 h.

On to `[2H]c1[nH]c2cccc3c2c1C[C@@H]1C3=C[C@@H](C(=O)N(CC)CC)CN1C` [Compound 41, (6aR,9R)-N,N-diethyl-7-methyl-4,6,6a,7,8,9-hexahydroindolo[4,3-fg]quinoline-9-carboxamide-4,5-d trifluoroacetate-d], for which the CLint is listed as 17.8 μL/min/mg protein and the T1/2 was 1.3 h.

Consider `[2H]c1[nH]c2c([2H])c([2H])c([2H])c3c2c1C[C@@H]1C3=C[C@@H](C(=O)N(CC)CC)CN1C` [Compound 45, (6aR,9R)-N,N-diethyl-7-methyl-4,6,6a,7,8,9-hexahydroindolo[4,3-fg]quinoline-9-carboxamide-1,2,3,5-d4 triflate-d], for which the CLint turned out to be 16.7 μL/min/mg protein and the T1/2 amounted to 1.38 h.

Take `[2H]C([2H])([2H])C([2H])([2H])N(C(=O)[C@@H]1C=C2c3cccc4[nH]cc(c34)C[C@H]2N(C)C1)C([2H])([2H])C([2H])([2H])[2H]` [Compound 47, (6aR,9R)-N,N-Bis(ethyl-d5)-7-methyl-4,6,6a,7,8,9-hexahydroindolo[4,3-fg]quinoline-9-carboxamide]: the CLint was 17.2 μL/min/mg protein and the T1/2 is 1.35 h.

Consider `[2H]C([2H])([2H])N1C[C@H](C(=O)N(C([2H])([2H])C([2H])([2H])[2H])C([2H])([2H])C([2H])([2H])[2H])C=C2c3cccc4[nH]cc(c34)C[C@H]21` [Compound 50, (6aR,9R)-N,N-bis(ethyl-d5)-7-(methyl-d3)-4,6,6a,7,8,9-hexahydroindolo[4,3-fg]quinoline-9-carboxamide trifluoroacetate-d], for which, where the note is “human, microsomes”, the half-life was found to be 1.61 h and the microsomal CLint amounted to 14.3 µL/min/mg.

As to `[2H]c1[nH]c2cccc3c2c1C[C@@H]1C3=C[C@@H](C(=O)N(C([2H])([2H])C([2H])([2H])[2H])C([2H])([2H])C([2H])([2H])[2H])CN1C` [Compound 55, (6aR,9R)-N,N-Bis(ethyl-d5)-7-methyl-4,6,6a,7,8,9-hexahydroindolo[4,3-fg]quinoline-9-carboxamide-5-d trifluoroacetate-d], under “human, microsomes”, the half-life worked out at 1.39 h and the microsomal CLint stood at 16.6 µL/min/mg.

For `[2H]c1[nH]c2c([2H])c([2H])c([2H])c3c2c1C[C@@H]1C3=C[C@@H](C(=O)N(C([2H])([2H])C([2H])([2H])[2H])C([2H])([2H])C([2H])([2H])[2H])CN1C` [Compound 67, (6aR,9R)-N,N-Bis(ethyl-d5)-7-methyl-4,6,6a,7,8,9-hexahydroindolo[4,3-fg]quinoline-9-carboxamide-1,2,3,5-d4 triflate-d], under “human, microsomes”, the “differences in half-life and intrinsic clearance compared to LSD” value is listed as “significant differences”; the half-life was determined as 2 h; the microsomal CLint turned out to be 11.5 µL/min/mg.

`CCN(CC)C(=O)[C@@H]1C=C2c3cccc4[nH]cc(c34)C[C@H]2N(C)C1` [LSD, Lysergic acid diethylamide, reference compound]: for the setting “human, microsomes”, the half-life amounted to 1.42 h and the microsomal CLint was 16.3 µL/min/mg.

`COc1ccc2c(c1)[C@]13CCCC[C@@H]1[C@H](C2)N(C)CC3` [dextromethorphan, reference compound] came in with a microsomal CLint (human, microsomes) of 46.8 µL/min/mg.

(Values after patent US20260092060A1, “IS[…] ANALOGS OF 2-BROMO-LSD, LSD, ALD-52, AND 1P-LSD” (priority 2021, published 2026).)
